Assay results: PMC11044139, “Comparative Study of Toxic Terpenoidal Aldehydes and Lactone Derivatives from the European Polypore Bondarzewia mesenterica” (ACS Omega, 2024)
Values after ≈ are worked out from the molar mass of the structure shown.

Experiments:
Type in all cases: cell-based
[1] = system: Schizosaccharomyces pombe (DSM 70572); assay: Antimicrobial assay (MIC), S. pombe; settings: overnight incubation, n.i. = no inhibition up to 67 μg/mL
Protocol: (§1) The antimicrobial effects of the isolated compounds were determined using our established protocols.[19] Generally, an array of clinically relevant microorganisms consisting of bacteria, namely, S. aureus (DSM 346), A. baumanii (DSM 30008), B. subtilis (DSM 10), E. coli (DSM 1116), P. aeruginosa (PA14), C. violaceum (DSM 30191), and M. smegmatis (ATCC 700084), and fungi including M. hiemalis (DSM 2656), C. albicans (DSM 1665), R. glutinis (DSM 10134), S. pombe (DSM 70572), and P. anomala (DSM 6766), were used. […] The minimum inhibitory concentrations (MIC) were recorded after an overnight incubation as the lowest concentration under which no microbial growth was visualized. The microorganisms were obtained from the German Collection of Microorganisms and Cell Cultures (DSMZ, Braunschweig, Germany).

[2] = system: Pichia anomala (DSM 6766); assay: Antimicrobial assay (MIC), P. anomala; settings: Hansenula anomala, DSM6766; Pichia anomala; overnight incubation; n.i. = no inhibition up to 67 μg/mL; read-out: MIC
Protocol: as §1

[3] = system: Candida albicans (DSM 1665); assay: Antimicrobial assay (MIC), C. albicans; settings: overnight incubation, n.i. = no inhibition up to 67 μg/mL
Protocol: as §1

[4] = system: Chromobacterium violaceum (DSM 30191); assay: Antimicrobial assay (MIC), C. violaceum; settings: overnight incubation, n.i. = no inhibition up to 67 μg/mL
Protocol: as §1

[5] = system: Acinetobacter baumanii (DSM 30008); assay: Antimicrobial assay (MIC), A. baumanii; settings: overnight incubation, n.i. = no inhibition up to 67 μg/mL
Protocol: as §1

[6] = system: Staphylococcus aureus (DSM 346); assay: Antimicrobial assay (MIC), S. aureus; settings: overnight incubation, n.i. = no inhibition up to 67 μg/mL
Protocol: as §1

[7] = system: Escherichia coli (DSM 1116); assay: Antimicrobial assay (MIC), E. coli; settings: overnight incubation, n.i. = no inhibition up to 67 μg/mL
Protocol: as §1

[8] = system: Pseudomonas aeruginosa (PA14); assay: Antimicrobial assay (MIC), P. aeruginosa; settings: overnight incubation, n.i. = no inhibition up to 67 μg/mL
Protocol: as §1

[9] = system: Rhodotorula glutinis (DSM 10134); assay: Antimicrobial assay (MIC), R. glutinis; settings: DSM10134, overnight incubation, n.i. = no inhibition up to 67 μg/mL, read-out: MIC
Protocol: as §1

[10] = system: P. anomala, M. hiemalis, and Rhodotorula glutinis; assay: Antimicrobial assay (MIC), three fungi summarised in text; settings: range over three fungi
Protocol: as §1

[11] = system: Mucor hiemalis (DSM 2656); assay: Antimicrobial assay (MIC), M. hiemalis; settings: DSM2656, overnight incubation, n.i. = no inhibition up to 67 μg/mL, read-out: MIC
Protocol: as §1

[12] = system: Bacillus subtilis (DSM 10); assay: Antimicrobial assay (MIC), B. subtilis; settings: overnight incubation, n.i. = no inhibition up to 67 μg/mL
Protocol: as §1

all tested cell lines = assay: Cytotoxicity (MTT) assay, all tested cell lines; settings: tested cell lines
From the text: MTT (3-(4,5-dimethylthiayol-2-yl)-2,5-diphenyltetrazolium bromide)-based assay was used to determine in vitro cytotoxicity as previously reported.[24] The tested mammalian cell lines included mouse fibroblasts (L929), endocervical adenocarcinoma (KB3.1), human lung carcinoma (A549), breast adenocarcinoma (MCF-7), prostate carcinoma (PC-3), and epidermoid carcinoma cells (A431). Epothilone B was used as a positive control.

[13] = system: Mycobacterium smegmatis (ATCC 700084); assay: Antimicrobial assay (MIC), M. smegmatis; settings: Mycobacterium smegmatis; overnight incubation; n.i. = no inhibition up to 67 μg/mL
Protocol: as §1

CC(C)=CCc1cc(C=O)ccc1O [Compound 9, 4-hydroxy-3(3-methylbut-2-enyl)benzaldehyde]
MIC [1]: n.i.
MIC [2]: 33.3 mg/L (≈ 175 µM)
MIC [3]: n.i.
MIC [4]: n.i.
MIC [5]: n.i.
MIC [6]: n.i.
MIC [7]: n.i.
MIC [8]: n.i.
MIC [9]: 66.6 mg/L (≈ 350 µM)
MIC values, range against P. anomala, M. hiemalis, and Rhodotorula glutinis [10]: 33.3 to 66.6 mg/L
MIC [11]: 66.6 mg/L (≈ 350 µM)
MIC [12]: n.i.
cytotoxic effects (in words) (all tested cell lines): no apparent cytotoxic effects
MIC [13]: n.i.
